Like-named read-outs stand apart in the source and are kept apart here. Bridge positions count the residues as written; N and C are the ends. Peptide text beside a SMILES is read from it. I, II: the chains in the order shown.
Experiments:
[1] = biological target: T1, RXFP4 (Homo sapiens, UniProt Q8TDU9); test: cAMP agonist assay (inhibition of forskolin-induced cAMP, pCRE β-galactosidase reporter) in CHO-K1-RXFP4 cells; type: cell-based; parameters: expressed in transfected cells; host or cells: CHO-K1 (ATCC), stably transfected; conditions: for RXFP4 Activity pEC50: CHO-K1-RXFP4 cells, inhibition of 1 µM forskolin-induced cAMP, 6 hours, mean ± SEM, n in cell
T1 sequence (Q8TDU9 whole entry): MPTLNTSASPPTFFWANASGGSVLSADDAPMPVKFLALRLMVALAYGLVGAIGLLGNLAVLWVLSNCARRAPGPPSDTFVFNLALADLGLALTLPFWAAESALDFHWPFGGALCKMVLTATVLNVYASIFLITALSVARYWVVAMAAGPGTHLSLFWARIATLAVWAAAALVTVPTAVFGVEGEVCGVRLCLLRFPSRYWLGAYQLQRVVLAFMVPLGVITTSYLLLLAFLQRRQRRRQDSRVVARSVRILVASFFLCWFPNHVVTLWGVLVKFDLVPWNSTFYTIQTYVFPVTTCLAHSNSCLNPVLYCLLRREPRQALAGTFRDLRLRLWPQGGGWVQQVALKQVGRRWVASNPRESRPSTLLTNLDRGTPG
Experimental: (§1) The peptides were tested for their ability to inhibit forskolin induced cAMP activity in CHO-K1-RXFP3 or CHO-K1-RXFP4 cells transfected with a pCRE (cAMP Response Element) β-galactosidase reporter plasmid as previously described[9],[34]. For agonist assays cells were stimulated with forskolin (5 µM for RXFP3, 1 µM for RXFP4) plus or minus increasing concentrations of each peptide for 6 hours. For antagonist assays cells were stimulated with forskolin as in agonist assays plus increasing concentrations of each peptide for 10 minutes followed by stimulation with agonist at an ~EC80 concentration for a further 6 hours (10 nM Analogue 2 for RXFP3 and 16.6 nM Analogue 13 for RXFP4). Each peptide was tested in triplicate and each experiment was performed independently at least three times. Agonist data was expressed as the % Forskolin activity whereby 100% was defined as Forskolin alone and 0% as maximum agonist stimulation (1 µM Analogue 2 for RXFP3 and 1 µM Analogue 13 for RXFP4). […] Data were analysed and plotted using GraphPad PRISM 8 and are expressed as the mean ± SEM of the pooled data. Statistical analysis was conducted using one-way ANOVA with Uncorrected Fisher’s LSD post-hoc analysis in GraphPad Prism version 8.

[2] = biological target: T2, RXFP3 (Homo sapiens, UniProt Q9NSD7); test: Competition binding in CHO-K1-RXFP3 cells (Eu-H3B1-22R); conditions: CHO-K1 cells stably transfected with RXFP3, competition with 5 nM Eu-H3B1-22R
T2 construct: expressed in transfected cells; host or cells: CHO-K1 (ATCC), stably transfected
T2 sequence (Q9NSD7 1-469): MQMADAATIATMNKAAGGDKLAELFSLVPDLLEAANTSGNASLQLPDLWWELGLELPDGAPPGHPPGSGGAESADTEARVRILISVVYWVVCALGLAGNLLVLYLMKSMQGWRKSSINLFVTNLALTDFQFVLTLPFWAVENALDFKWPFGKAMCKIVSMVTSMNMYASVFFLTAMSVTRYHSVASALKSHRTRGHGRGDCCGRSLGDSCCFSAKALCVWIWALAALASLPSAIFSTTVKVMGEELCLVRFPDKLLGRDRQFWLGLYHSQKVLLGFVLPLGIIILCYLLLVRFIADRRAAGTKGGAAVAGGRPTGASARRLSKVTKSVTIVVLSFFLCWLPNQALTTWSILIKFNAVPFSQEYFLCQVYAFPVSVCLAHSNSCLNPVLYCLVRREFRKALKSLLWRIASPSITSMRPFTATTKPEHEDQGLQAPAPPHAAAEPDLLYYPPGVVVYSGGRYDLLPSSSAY
Experimental: (§2) Chinese hamster ovary CHO-K1 cells (sourced from American Type Culture Collection (ATCC), Maryland, USA) stably transfected with RXFP3[33] or RXFP4[9] were plated out onto precoated poly-L-lysine 96-well view plates at a density of 50 000 cells per well. Medium was aspirated off and the cells were washed with phosphate-buffered saline (PBS) before competition binding assays were performed with 5 nM Eu-H3B1–22R[34] (RXFP3 ligand) or 5 nM Eu-DTPA-mINSL5[9] (RXFP4 ligand) as previously described. Competition binding curves were performed in triplicate and each experiment was performed independently at least three times. Fluorescent measurements were carried out on a BMG POLARstar plate reader (BMG Labtech, Melbourne, Australia. Pooled data are presented as mean ± S.E of specific binding and are fitted using one-site binding curve in GraphPad Prism version 8 (GraphPad Inc., San Diego, USA). Statistical analyses were conducted using one-way analysis of variance with uncorrected Fisher’s least significant difference (LSD) post-hoc analysis in GraphPad Prism version 8.

[3] = biological target: T1, RXFP4; test: Competition binding in CHO-K1-RXFP4 cells (Eu-DTPA-mINSL5); parameters: expressed in transfected cells; host or cells: CHO-K1 (ATCC), stably transfected; conditions: CHO-K1 cells stably transfected with RXFP4, competition with 5 nM Eu-DTPA-mINSL5
Experimental: as §2

[4] = biological target: T2, RXFP3; test: cAMP agonist assay (inhibition of forskolin-induced cAMP, pCRE β-galactosidase reporter) in CHO-K1-RXFP3 cells; type: cell-based; conditions: SEM; read-out: RXFP3 Activity pEC50 (converted)
Experimental: as §1

[5] = biological target: T1, RXFP4; test: cAMP antagonist assay against 16.6 nM analogue 13 in CHO-K1-RXFP4 cells; type: cell-based; parameters: expressed in transfected cells; host or cells: CHO-K1 (ATCC), stably transfected; conditions: SEM; read-out: RXFP4 Emax (antagonist efficacy)
Experimental: as §1

[6] = biological target: T2, RXFP3; test: cAMP antagonist assay against 10 nM analogue 2 in CHO-K1-RXFP3 cells; type: cell-based; conditions: SEM; read-out: RXFP3 Emax (antagonist efficacy)
Experimental: as §1

Row | Structure (SMILES) | EC50 [1] [nM] | Ki ([2]; read-out: RXFP3 Binding Ki) [nM] | Ki ([3]; read-out: RXFP4 Binding Ki) [nM] | EC50 [4] [nM] | RXFP4 Activity pEC50 [1] | Emax [5] [%] | Emax [6] [%] | Ki ([2]; mean ± SEM, n in cell, SEM, read-out: RXFP3 Binding pKi (converted)) [nM] | Ki ([3]; mean ± SEM, n in cell, SEM, read-out: RXFP4 Binding pKi (converted)) [nM]
1 | CC[C@H](C)[C@@H]1NC(=O)[C@H](Cc2ccccc2)NC(=O)[C@H](CCC(=O)O)NC(=O)[C@H](CCCNC(=N)N)NC(=O)CNC(=O)[C@@H](NC(=O)[C@H](CC(C)C)NC(=O)[C@H](CCCNC(=N)N)NC(=O)[C@@H](NC(=O)CNC(=O)[C@H](Cc2ccc(O)cc2)NC(=O)[C@@H]2CCCN2C(=O)[C@H](C)NC(=O)[C@H](C)NC(=O)[C@@H](N)CCCNC(=N)N)C(C)C)CSSC[C@H](N)C(=O)N[C@@H](CCCCN)C(=O)N[C@@H](Cc2c[nH]c3ccccc23)C(=O)NCC(=O)N[C@@H](CO)C(=O)N[C@@H](C)C(=O)N[C@@H](CCCCN)C(=O)N[C@@H](CO)C(=O)N[C@@H](CCC(=O)O)C(=O)N[C@@H]([C@@H](C)CC)C(=O)N[C@@H](CO)C(=O)N[C@@H](CO)C(=O)N[C@@H](CC(C)C)C(=O)N[C@H](C(=O)O)CSSC[C@@H](C(=O)NCC(=O)NCC(=O)N[C@@H](CO)C(=O)N[C@@H](CCCNC(=N)N)C(=O)N[C@@H](Cc2c[nH]c3ccccc23)C(=O)O)NC(=O)[C@H]([C@@H](C)O)NC(=O)[C@H](Cc2ccccc2)NC(=O)[C@H]([C@@H](C)CC)NC(=O)[C@H](C(C)C)NC(=O)[C@H](C)NC(=O)[C@H](CCCNC(=N)N)NC1=O [Analogue 2, reference compound] | 19.9 | 19.1 | 79.4 | 3.72 |  |  |  |  | 
2 | CC[C@H](C)[C@@H]1NC(=O)[C@H](Cc2ccccc2)NC(=O)[C@H](CCC(=O)O)NC(=O)[C@H](CCCNC(=N)N)NC(=O)CNC(=O)[C@@H](NC(=O)[C@H](CC(C)C)NC(=O)[C@H](CCCNC(=N)N)NC(=O)[C@@H](NC(=O)CNC(=O)[C@H](Cc2ccc(O)cc2)NC(=O)[C@@H]2CCCN2C(=O)[C@H](C)NC(=O)[C@H](C)NC(=O)[C@@H](N)CCCNC(=N)N)C(C)C)CSSC[C@H](N)C(=O)N[C@@H]([C@@H](C)O)C(=O)N[C@@H](CC(=O)O)C(=O)NCC(=O)N[C@@H](C)C(=O)N[C@@H](CO)C(=O)N[C@@H](CCSC)C(=O)N[C@@H](CCCCN)C(=O)N[C@@H](CC(=O)O)C(=O)N[C@@H](CC(C)C)C(=O)N[C@@H](CO)C(=O)N[C@@H](C)C(=O)N[C@@H](CC(C)C)C(=O)N[C@H](C(=O)O)CSSC[C@@H](C(=O)N[C@@H](CCCNC(=N)N)C(=O)O)NC(=O)[C@H]([C@@H](C)CC)NC(=O)[C@H](Cc2ccccc2)NC(=O)[C@H]([C@@H](C)CC)NC(=O)[C@H](C(C)C)NC(=O)[C@H](C)NC(=O)[C@H](CCCNC(=N)N)NC1=O [Analogue 16] (I: H-RAAPYGVRLCGREFIRAVIFICR-OH / II: H-CTDGASMKDLSALC-OH; disulfide I:10-II:1, I:22-II:14; N-terminus assumed) |  |  |  |  | Weak partial agonist (4) | 2.1 ± 4.7 | 55.8 ± 3.4 |  | 
3 | CC[C@H](C)[C@@H]1NC(=O)[C@H](Cc2ccccc2)NC(=O)[C@H]([C@@H](C)CC)NC(=O)[C@H](C(C)C)NC(=O)[C@H]([C@@H](C)O)NC(=O)[C@H](CCCNC(=N)N)NC(=O)[C@H]([C@@H](C)CC)NC(=O)[C@H](Cc2ccccc2)NC(=O)[C@H](CCC(=O)O)NC(=O)[C@H](CC(C)C)NC(=O)CNC(=O)[C@@H](NC(=O)[C@H](CC(C)C)NC(=O)[C@H](CCCNC(=N)N)NC(=O)[C@@H](NC(=O)CNC(=O)[C@H](CCC(=O)O)NC(=O)[C@H](CCCCN)NC(=O)[C@H](C)NC(=O)[C@H](C)NC(=O)[C@@H](N)CCCNC(=N)N)C(C)C)CSSC[C@H](N)C(=O)N[C@@H]([C@@H](C)O)C(=O)N[C@@H](CC(=O)O)C(=O)NCC(=O)N[C@@H](C)C(=O)N[C@@H](CO)C(=O)N[C@@H](CCSC)C(=O)N[C@@H](CCCCN)C(=O)N[C@@H](CC(=O)O)C(=O)N[C@@H](CC(C)C)C(=O)N[C@@H](CO)C(=O)N[C@@H](C)C(=O)N[C@@H](CC(C)C)C(=O)N[C@H](C(=O)O)CSSC[C@@H](C(=O)N[C@@H](CCCNC(=N)N)C(=O)O)NC1=O [Analogue 20] (I: H-RAAKEGVRLCGLEFIRTVIFICR-OH / II: H-CTDGASMKDLSALC-OH; disulfide I:10-II:1, I:22-II:14; N-terminus assumed) |  |  |  |  | Weak partial agonist (4) | 8.1 ± 9.5 | 19.9 ± 2.3 |  | 
4 | CC[C@H](C)[C@@H]1NC(=O)[C@H](Cc2ccccc2)NC(=O)[C@H](CCC(=O)O)NC(=O)[C@H](CCCNC(=N)N)NC(=O)CNC(=O)[C@@H](NC(=O)[C@H](CC(C)C)NC(=O)[C@H](CCCNC(=N)N)NC(=O)[C@@H](NC(=O)CNC(=O)[C@H](Cc2ccc(O)cc2)NC(=O)[C@@H]2CCCN2C(=O)[C@H](C)NC(=O)[C@H](C)NC(=O)[C@@H](N)CCCNC(=N)N)C(C)C)CSSC[C@@H]2NC(=O)[C@@H](NC(=O)[C@H](CO)NC(=O)[C@H](CO)NC(=O)[C@H](CO)NC(=O)[C@H](CC(C)C)NC(=O)CNC(=O)[C@H](C)NC(=O)[C@H](CC(C)C)NC(=O)[C@@H](NC(=O)[C@@H](N)CC(=O)O)C(C)C)CSSC[C@H](NC(=O)CNC(=O)[C@H](Cc3c[nH]c4ccccc34)NC(=O)[C@H](CCCCN)NC2=O)C(=O)N[C@@H](CO)C(=O)N[C@@H](CCCCN)C(=O)N[C@@H](CO)C(=O)N[C@@H](CCC(=O)O)C(=O)N[C@@H]([C@@H](C)CC)C(=O)N[C@@H](CO)C(=O)N[C@@H](CO)C(=O)N[C@@H](CC(C)C)C(=O)N[C@H](C(=O)O)CSSC[C@@H](C(=O)NCC(=O)NCC(=O)N[C@@H](CO)C(=O)N[C@@H](CCCNC(=N)N)C(=O)N[C@@H](Cc2c[nH]c3ccccc23)C(=O)O)NC(=O)[C@H]([C@@H](C)O)NC(=O)[C@H](Cc2ccccc2)NC(=O)[C@H]([C@@H](C)CC)NC(=O)[C@H](C(C)C)NC(=O)[C@H](C)NC(=O)[C@H](CCCNC(=N)N)NC1=O [Relaxin 3 (R3), reference compound] |  |  |  | 0.832 |  |  |  | 22.9 | 2.29

Source: publication PMC6882824, “Engineering of chimeric peptides as antagonists for the G protein-coupled receptor, RXFP4” (Scientific Reports, 2019)
